Test system: MSH3
Assay: QPCR assay for levels of MSH3 upon compound treatment in HEK293T or AD293 cells (fold-change of MSH3 transcript, EC50 of MSH3 downregulation; total MSH3 exons 13/14, exons 20/21; Table 8)
Assay type: cell-based
Details: for mrna remaining at 1 µM / mrna remaining at 10 µM: Homo sapiens, fold-change of the MSH3 transcript, normalized to GAPDH; for mrna remaining at 1 µM: 1 μM compound; for mrna remaining at 10 µM: 10 μM compound; for EC50: EC50 of MSH3 downregulation, XtalPi
In short: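 HEK293T or AD293 cells were treated at 1 μM and […]; RNA-to-cDNA qPCR used TaqMan assays for total MSH3 (exons 13/14, exons 20/21) and poison-exon junctions exon 13/PE14A and exon 20/PE21A. Transcript levels were normalized to GAPDH.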

Row | EC50 [nM] | SMILES | mrna remaining at 1 µM [%] | mrna remaining at 10 µM [%]
1 | – | CN(c1ncc(N2Cc3ccc(-c4cnn(C)n4)cc3C2=O)nn1)[C@H]1C[C@]2(C)CC[C@](C)(C1)N2 [Compound 429, 2-(3-(((1R,3s,5S)-1,5-dimethyl-8-azabicyclo[3.2.1]octan-3-yl)(methyl)amino)-1,2,4-triazin-6-yl)-6-(2-methyl-2H-1,2,3-triazol-4-yl)isoindolin-1-one] | 102 | 52
2 | – | Cc1nn(C)cc1-c1ccc2c(c1)C(=O)N(c1ccc(OC3CC(C)(C)NC4(CC4)C3)nn1)C2 (stereo not drawn) [Compound 438, 6-(1,3-dimethyl-1H-pyrazol-4-yl)-2-(6-((5,5-dimethyl-4-azaspiro[2.5]octan-7-yl)oxy)pyridazin-3-yl)isoindolin-1-one] | 109 | 81
3 | – | Cc1nn(C)nc1-c1ccc2c(c1)C(=O)N(c1ccc(O[C@H]3C[C@]4(C)CC[C@](C)(C3)N4)nn1)C2 [Compound 439, 6-(2,5-dimethyl-2H-1,2,3-triazol-4-yl)-2-(6-(((1R,3s,5S)-1,5-dimethyl-8-azabicyclo[3.2.1]octan-3-yl)oxy)pyridazin-3-yl)isoindolin-1-one] | 87 | 72
4 | – | Cc1nn(C)cc1-c1cc(Cl)c2c(c1)C(=O)N(c1ccc(O[C@H]3C[C@]4(C)CC[C@](C)(C3)N4)nn1)C2 [Compound 447, 4-chloro-6-(1,3-dimethyl-1H-pyrazol-4-yl)-2-(6-(((1R,3s,5S)-1,5-dimethyl-8-azabicyclo[3.2.1]octan-3-yl)oxy)pyridazin-3-yl)isoindolin-1-one] | 94 | –
5 | – | Cc1nn(C)cc1-c1cc2c(cn1)CN(c1ccc(OC3CCC(C)(C)NC(C)(C)C3)nn1)C2=O (stereo not drawn) [Compound 457, 6-(1,3-dimethyl-1H-pyrazol-4-yl)-2-(6-((2,2,7,7-tetramethylazepan-4-yl)oxy)pyridazin-3-yl)-2,3-dihydro-1H-pyrrolo[3,4-c]pyridin-1-one] | 85 | 70
6 | 820 | Cn1cc(-c2cc3c(cn2)CN(c2ccc(O[C@H]4C[C@]5(C)CC[C@](C)(C4)N5)nn2)C3=O)c(Cl)n1 [Compound 458, 6-(3-chloro-1-methyl-1H-pyrazol-4-yl)-2-(6-(((1R,3s,5S)-1,5-dimethyl-8-azabicyclo[3.2.1]octan-3-yl)oxy)pyridazin-3-yl)-2,3-dihydro-1H-pyrrolo[3,4-c]pyridin-1-one] | 40 | 11
7 | – | Cn1nc(Cl)c(-c2cc3c(cn2)CN(c2ccc(O[C@H]4C[C@]5(C)CC[C@](C)(C4)N5)nn2)C3=O)n1 [Compound 460, 6-(5-chloro-2-methyl-2H-1,2,3-triazol-4-yl)-2-(6-(((1R,3s,5S)-1,5-dimethyl-8-azabicyclo[3.2.1]octan-3-yl)oxy)pyridazin-3-yl)-2,3-dihydro-1H-pyrrolo[3,4-c]pyridin-1-one] | 80 | 25
8 | – | Cn1ncc(-c2cc3c(cn2)CN(c2ccc(OC4CCC(C)(C)NC(C)(C)C4)nn2)C3=O)n1 (stereo not drawn) [Compound 465, 6-(2-methyl-2H-1,2,3-triazol-4-yl)-2-(6-((2,2,7,7-tetramethylazepan-4-yl)oxy)pyridazin-3-yl)-2,3-dihydro-1H-pyrrolo[3,4-c]pyridin-1-one] | 93 | 115
9 | – | Cc1nn(C)cc1-c1cnc2c(c1)C(=O)N(c1ccc(OC3CCC(C)(C)NC(C)(C)C3)nn1)C2 (stereo not drawn) [Compound 479, 3-(1,3-dimethyl-1H-pyrazol-4-yl)-6-(6-((2,2,7,7-tetramethylazepan-4-yl)oxy)pyridazin-3-yl)-6,7-dihydro-5H-pyrrolo[3,4-b]pyridin-5-one] | 119 | 56
10 | 363 | Cn1nc(Cl)c(-c2cnc3c(c2)C(=O)N(c2ccc(O[C@H]4C[C@]5(C)CC[C@](C)(C4)N5)nn2)C3)n1 [Compound 480, 3-(5-chloro-2-methyl-2H-1,2,3-triazol-4-yl)-6-(6-(((1R,3s,5S)-1,5-dimethyl-8-azabicyclo[3.2.1]octan-3-yl)oxy)pyridazin-3-yl)-6,7-dihydro-5H-pyrrolo[3,4-b]pyridin-5-one] | 15 | 10
11 | – | Cn1ncc(-c2cnc3c(c2)C(=O)N(c2ccc(OC4CCC(C)(C)NC(C)(C)C4)nn2)C3)n1 (stereo not drawn) [Compound 485, 3-(2-methyl-2H-1,2,3-triazol-4-yl)-6-(6-((2,2,7,7-tetramethylazepan-4-yl)oxy)pyridazin-3-yl)-6,7-dihydro-5H-pyrrolo[3,4-b]pyridin-5-one] | 88 | 40
12 | – | Cc1nn(C)cc1-c1cnc2c(c1)C(=O)N(c1ccc(N(C3CC3)C3CC(C)(C)NC(C)(C)C3)nn1)C2 [Compound 487, 6-(6-(cyclopropyl(2,2,6,6-tetramethylpiperidin-4-yl)amino)pyridazin-3-yl)-3-(1,3-dimethyl-1H-pyrazol-4-yl)-6,7-dihydro-5H-pyrrolo[3,4-b]pyridin-5-one] | 133 | 31
13 | – | Cn1nc(Cl)c(-c2cnc3c(c2)C(=O)N(c2ccc(OC4CCC(C)(C)NC(C)(C)C4)nn2)C3)n1 (stereo not drawn) [Compound 488, 3-(5-chloro-2-methyl-2H-1,2,3-triazol-4-yl)-6-(6-((2,2,7,7-tetramethylazepan-4-yl)oxy)pyridazin-3-yl)-6,7-dihydro-5H-pyrrolo[3,4-b]pyridin-5-one] | 69 | 19
14 | – | Cc1nn(C)cc1-c1cnc2c(c1)C(=O)N(c1ccc(S[C@H]3C[C@]4(C)CC[C@](C)(C3)N4)nn1)C2 [Compound 490, 3-(1,3-dimethyl-1H-pyrazol-4-yl)-6-(6-(((1R,3s,5S)-1,5-dimethyl-8-azabicyclo[3.2.1]octan-3-yl)thio)pyridazin-3-yl)-6,7-dihydro-5H-pyrrolo[3,4-b]pyridin-5-one] | 90 | 25
15 | – | Cn1nc(Cl)c(-c2cnc3c(c2)C(=O)N(c2ccc(OC4CC(C)(C)NC(C)(C)C4)nn2)C3)n1 [Compound 493, 3-(5-chloro-2-methyl-2H-1,2,3-triazol-4-yl)-6-(6-((2,2,6,6-tetramethylpiperidin-4-yl)oxy)pyridazin-3-yl)-6,7-dihydro-5H-pyrrolo[3,4-b]pyridin-5-one] | 57 | 13
16 | 690 | Cc1nn(C)cc1-c1cnc2c(n1)C(=O)N(c1ccc(N(C)[C@H]3C[C@]4(C)CC[C@](C)(C3)N4)nn1)C2 [Compound 496, 3-(1,3-dimethyl-1H-pyrazol-4-yl)-6-(6-(((1R,3s,5S)-1,5-dimethyl-8-azabicyclo[3.2.1]octan-3-yl)(methyl)amino)pyridazin-3-yl)-6,7-dihydro-5H-pyrrolo[3,4-b]pyrazin-5-one] | – | –
17 | – | Cn1ncc(-c2cnc3c(n2)C(=O)N(c2ccc(O[C@H]4C[C@]5(C)CC[C@](C)(C4)N5)nn2)C3)n1 [Compound 498, 6-(6-(((1R,3s,5S)-1,5-dimethyl-8-azabicyclo[3.2.1]octan-3-yl)oxy)pyridazin-3-yl)-3-(2-methyl-2H-1,2,3-triazol-4-yl)-6,7-dihydro-5H-pyrrolo[3,4-b]pyrazin-5-one] | 67 | 52
18 | – | Cc1nn(C)nc1-c1cnc2c(n1)C(=O)N(c1ccc(OC3CC(C)(C)NC4(CCC4)C3)nn1)C2 (stereo not drawn) [Compound 500, 3-(2,5-dimethyl-2H-1,2,3-triazol-4-yl)-6-(6-((6,6-dimethyl-5-azaspiro[3.5]nonan-8-yl)oxy)pyridazin-3-yl)-6,7-dihydro-5H-pyrrolo[3,4-b]pyrazin-5-one] | 101 | 22
19 | – | Cn1nc(Cl)c(-c2cnc3c(n2)C(=O)N(c2ccc(O[C@H]4C[C@]5(C)CC[C@](C)(C4)N5)nn2)C3)n1 [Compound 503, 3-(5-chloro-2-methyl-2H-1,2,3-triazol-4-yl)-6-(6-(((1R,3s,5S)-1,5-dimethyl-8-azabicyclo[3.2.1]octan-3-yl)oxy)pyridazin-3-yl)-6,7-dihydro-5H-pyrrolo[3,4-b]pyrazin-5-one] | 70 | 18
20 | – | Cn1nc(Cl)c(-c2cnc3c(n2)C(=O)N(c2ccc(OC4CCC(C)(C)NC(C)(C)C4)nn2)C3)n1 (stereo not drawn) [Compound 509, 3-(5-chloro-2-methyl-2H-1,2,3-triazol-4-yl)-6-(6-((2,2,7,7-tetramethylazepan-4-yl)oxy)pyridazin-3-yl)-6,7-dihydro-5H-pyrrolo[3,4-b]pyrazin-5-one] | 117 | 62
21 | – | Cc1nn(C)nc1-c1cnc2c(c1)C(=O)N(c1ccc(N3CC4CNC4C3)nn1)C2 (stereo not drawn) [Compound 559, 6-(6-(3,6-diazabicyclo[3.2.0]heptan-3-yl)pyridazin-3-yl)-3-(2,5-dimethyl-2H-1,2,3-triazol-4-yl)-6,7-dihydro-5H-pyrrolo[3,4-b]pyridin-5-one] | 93 | 53
22 | – | Cc1nn(C)nc1-c1cnc2c(c1)C(=O)N(c1ccc(N3CC4CC3CN4)nn1)C2 (stereo not drawn) [Compound 560, 6-(6-(2,5-diazabicyclo[2.2.1]heptan-2-yl)pyridazin-3-yl)-3-(2,5-dimethyl-2H-1,2,3-triazol-4-yl)-6,7-dihydro-5H-pyrrolo[3,4-b]pyridin-5-one] | 81 | 29
23 | – | Cc1nn(C)nc1-c1cnc2c(c1)C(=O)N(c1ccc(N3CC4CCC3CN4)nn1)C2 (stereo not drawn) [Compound 563, 6-(6-(2,5-diazabicyclo[2.2.2]octan-2-yl)pyridazin-3-yl)-3-(2,5-dimethyl-2H-1,2,3-triazol-4-yl)-6,7-dihydro-5H-pyrrolo[3,4-b]pyridin-5-one] | 104 | 35
24 | – | Cc1nn(C)nc1-c1cnc2c(c1)C(=O)N(c1ccc(N3CCC4(CCCN4)C3)nn1)C2 (stereo not drawn) [Compound 566, 6-(6-(1,7-diazaspiro[4.4]nonan-7-yl)pyridazin-3-yl)-3-(2,5-dimethyl-2H-1,2,3-triazol-4-yl)-6,7-dihydro-5H-pyrrolo[3,4-b]pyridin-5-one] | 133 | 60

Reference: patent US20260315464A1, “COMPOSITIONS, METHODS, AND SYSTEMS FOR MODULATING SPLICING OF MSH3” (REVIR THERAPEUTICS, INC., priority 2023, published 2026)
